Experimental findings from patent US20050137806A1 (priority 2003, published 2005) are described below.

Structures are written as SMILES. Counter-ions that a name gives are not always drawn.

The test system of the test is a cell line. The format is cell-based. The settings on record: for mitotic index as a function of drug concentration (dose response path): FIG. 2A, drugs in aqueous DMSO, multiple concentrations, fraction of cells in mitosis. The protocol: As shown, four different drugs were tested against a cell line at multiple concentrations. Taxol, one of the drugs, was tested twice. For each drug at each concentration various images were taken to extract various cellular features by image analysis. In some cases, basic extracted features are analyzed using appropriate classification algorithm to provide higher-level biological classifications such as mitotic state. In FIG. 2A, the feature is “mitotic index” (a numerical classification of the cells an image on basis of the fraction of them in mitosis) shown as the dependent variable with respect to concentration in a two-dimensional plot.
All drugs were provided in an aqueous solution of dimethyl sulfoxide (DMSO). As a negative control, the cells were exposed to aqueous DMSO without any drug present. Normally, an aqueous DMSO solution is used as the solvent for delivering drugs to samples. The feature values extracted for cells exposed to the DMSO control are shown as signatures 207.
Another approach replaces the concentration variable (generally a level of stimulus variable) with another variable that can depict a trajectory but is relatively independent of potency. In other words, the chosen feature space is independent (or largely independent) of dose (concentration). […] This new variable is a measure of the number of cells that survived the treatment. Because the variable changes only when the drug begins taking effect (regardless of absolute concentration), it effectively puts all curves on the same potency scale. Using this plot, one can more rigorously classify Taxol and Cytochalasin A as having the same mechanism of action (based on mitotic index as the dependent variable).

Take `C=C1[C@@H](C)[C@H]2[C@H](Cc3ccccc3)NC(=O)[C@]23OC(=O)/C=C/C(=O)CCC[C@@H](C)C/C=C/[C@H]3[C@@H]1O` [Cytochalasin A]: the “mitotic index as a function of drug concentration (dose response path)” value (from here on “mitotic index as a function”) is reported as “S-shaped”. On the same count and under the same terms, the entry for `CC[C@@H]1/C=C/C=C/C[C@H](C)[C@H](O)[C@](C)(O)C(=O)[C@H](C)[C@@H](O)[C@H](C)C(=O)[C@H](C)[C@@H](O)[C@H](C)/C=C/C(=O)O[C@H]2[C@@H](C)[C@@H](CC1)O[C@@]1(CC[C@@H](C)[C@@H](C[C@H](C)O)O1)[C@@H]2C` [Oligomycin A] is “very little impact on mitotic index until relatively high concentrations are used”. As to `CC(=O)O[C@H]1C(=O)[C@@]2(C)[C@H]([C@H](OC(=O)c3ccccc3)[C@]3(O)C[C@H](OC(=O)[C@H](O)[C@@H](NC(=O)c4ccccc4)c4ccccc4)C(C)=C1C3(C)C)[C@]1(OC(C)=O)CO[C@@H]1C[C@@H]2O` [Taxol], the “mitotic index as a function” value is recorded as “S-shaped”. Besides, the “mitotic index versus number of cells (response path comparison)” value (FIG. 2B, concentration not displayed, number of cells that survived treatment as axis) is reported as “act similarly to the tested concentrations of Vinblastine Sulfate”. As for `CC[C@]1(O)C[C@@H]2CN(CCc3c([nH]c4ccccc34)[C@@](C(=O)OC)(c3cc4c(cc3OC)N(C)[C@H]3[C@@](O)(C(=O)OC)[C@H](OC(C)=O)[C@]5(CC)C=CCN6CC[C@]43[C@@H]65)C2)C1` [Vinblastine Sulfate], the “mitotic index as a function” value was “relatively high numerical value of mitotic index at various concentrations”.
